# Values quoted from earlier work in patent EP2090292A1, “Means and methods for controlling commensales” (B.R.A.I.N. Biotechnology Research and Information Network AG, priority 2008, dated 2009).
# Entries after “also recorded” stand apart in the source; their conditions may differ.
# Tested on: Gram-positive and Gram-negative bacteria
# Conditions: prior art, Torres et al. (1998); biofilm not assayed
structure (smiles),measurement,value
"CC1OC(=O)C(C2OC2C)=CC1O (stereo not shown) [aspyrone, 6-Dihydro-5-hydroxy-6-methyl-3-(3-methyloxiranyl)-2H-pyran-2-one]",inhibitory activity against Gram-positive and Gram-negative bacteria,weak inhibitory activity; also recorded: weak to negligible activity
